The text below walks through data of article PMC8074941, “Synthesis of cyclotetrapeptide analogues of c-PLAI and evaluation of their antimicrobial properties” (Royal Society Open Science, 2021).

Converted amounts (≈) assume the structure as drawn. Where a SMILES comes first, the peptide text is derived from it. A value given as a limit tells only on which side of the number the result lay.

One test concerns B. cereus ATCC 11778. Description: microbe, parasite or virus in culture. As to conditions: ATCC 11778, 18 h. The protocol:
(§1) Tools and materials were sterilized in an autoclave for 15 min at 121°C. Bacterial culture was grown in agar media (Mueller Hinton agar) by picking some bacterial colony using an inoculating loop, followed by incubation at 37°C for 24 h. Bacterial culture was then suspended in liquid media (Mueller Hinton Broth). The suspended bacterial culture was then incubated at 37°C for 24 h and standardized equal to 0.5 Mc Farland (2 × 10^8 CFU ml^−1). The culture was diluted into the concentration of 5 × 10^5 CFU ml^−1.
(§2) Six tetrapeptides and six cyclotetrapeptides were dissolved in DMSO 2% with a concentration of 1 µg mL^−1. Each solution was dissolved gradually. Subsequently, 12 sample solutions, ciprofloxacin, nystatin, ketoconazole and DMSO 2% were incubated on a 96-well microplate at 37°C for 18 h. The result was interpreted using a spectrophotometer, with a wavelength of 600 nm. MIC was measured as the percentage of microbial inhibition and cell death.

The test system of a further test is E. coli ATCC 11229. Description: microbe, parasite or virus in culture. As to conditions: ATCC 11229, 18 h. On the procedure:
as §1, §2

The test system of a further test is K. pneumonia ATCC 2357. The experiment in a line: microbe, parasite or virus in culture. As to conditions: ATCC 2357, 18 h. The protocol: as §1, §2
For the next test, the system named is S. aureus ATCC 6538. The experiment in a line: microbe, parasite or virus in culture. The settings on record: ATCC 6538, 18 h. On the procedure:
as §1, §2

The subject of the next test is C. albicans ATCC 10231. The settings on record: ATCC 10231, 18 h. On the procedure: (§3) Tools and materials were sterilized in an autoclave for 15 min at 121°C. Fungal culture was grown in agar media (Potato Dextrose agar) by picking some fungal colony using an inoculating loop, followed by incubation at 30°C for 24–48 h. Fungal culture was then suspended in liquid media (Potato Dextrose Broth). The suspended fungal culture was then incubated for 24–48 h at 30°C. The suspended fungal culture was then incubated at 30°C for 24 h and standardized equal to 0.5 Mc Farland (2 × 10^8 CFU ml^−1). The culture was diluted into the concentration of 5 × 10^5 CFU ml^−1.
as §2

In the next test the test system is T. mentagrophyte. Description: microbe, parasite or virus in culture. The settings on record: 18 h. On the procedure: as §3, §2
The subject of a further test is Candida albicans. The settings on record: synthetic product of solution-phase synthesis; strain not given; cited from earlier work. The protocol:
(§4) c-PLAI [cyclo(pro-leu-ala-ile)] is a cyclotetrapeptide that was isolated by Rungprom and co-workers in 2008 from marine Pseudomonas sp., which was associated with the Japanese seaweed Diginea sp.. All the amino acid residues of c-PLAI were reported to be L-configured. […] Later, c-PLAI was successfully synthesized using a convergent solution-phase method. ... || The antimicrobial properties of all linear and cyclic tetrapeptides were evaluated (table 3). […] The lack of information regarding the microbial strains used in the previous report led us to the assumption that the use of different strains in the assay could lead to a differen ...

A further test concerns Klebsiella pneumoniae. The settings on record: synthetic product of solution-phase synthesis; strain not given; cited from earlier work. The protocol:
as §4

A further test relates to Pseudomonas aeruginosa. As to conditions: synthetic product of solution-phase synthesis; strain not given; cited from earlier work. On the procedure:
as §4

Test [1] concerns Trichophyton mentagrophytes. The settings on record: synthetic product of solution-phase synthesis; strain not given; cited from earlier work. On the procedure: as §4
A further test has as its system Bacillus subtilis. The settings on record: c-PLAI isolated from marine Pseudomonas sp.; cited from earlier work. An excerpt: (§5) c-PLAI [cyclo(pro-leu-ala-ile)] is a cyclotetrapeptide that was isolated by Rungprom and co-workers in 2008 from marine Pseudomonas sp., which was associated with the Japanese seaweed Diginea sp.. All the amino acid residues of c-PLAI were reported to be L-configured. […] Later, c-PLAI was successfully synthesized using a convergent solution-phase method. ...

The next test relates to Escherichia coli. As to conditions: c-PLAI isolated from marine Pseudomonas sp.; cited from earlier work.
Text: as §5

The next test relates to Micrococcus luteus. The settings on record: c-PLAI isolated from marine Pseudomonas sp.; cited from earlier work.
Text: as §5

For a further test, the system named is Microsporum andouinii. The settings on record: synthetic product of solution-phase synthesis; strain not given; cited from earlier work.
Text: as §5

The test system of another test is Staphylococcus aureus. As to conditions: c-PLAI isolated from marine Pseudomonas sp.; cited from earlier work.
Text: as §5

The test system of a further test is Vibrio anguillarum. The settings on record: c-PLAI isolated from marine Pseudomonas sp.; cited from earlier work.
Text: as §5

For `CC[C@H](C)[C@@H]1NC(=O)[C@H](C)NC(=O)[C@H](CC(C)C)NC(=O)[C@@H]2CCCN2C1=O` [c-PLAI, cyclo(pro-leu-ala-ile)] (cyclo(PLAI)), the “minimum inhibitory concentration (MIC) B. cereus ATCC 11778” value in the test with B. cereus ATCC 11778 was 125 µg/mL (≈ 317 µM). Besides, the “minimum inhibitory concentration (MIC) E. coli ATCC 11229” value in the test on E. coli ATCC 11229 is 250 µg/mL (≈ 634 µM). The “minimum inhibitory concentration (MIC) K. pneumonia ATCC 2357” value in the test on K. pneumonia ATCC 2357 stood at 500 µg/mL (≈ 1270 µM). The “minimum inhibitory concentration (MIC) S. aureus ATCC 6538” value in the test with S. aureus ATCC 6538 was above 1000 µg/mL. In the test on C. albicans ATCC 10231, the “minimum inhibitory concentration (MIC) C. albicans ATCC 10231” value is above 1000 µg/mL. Moreover, the “minimum inhibitory concentration (MIC) T. mentagrophyte” value in the test with T. mentagrophyte is 125 µg/mL (≈ 317 µM). In the test on Candida albicans, the “minimum inhibitory concentration (MIC) Candida albicans” value is 6 µg/mL (≈ 15.2 µM). Further, the “minimum inhibitory concentration (MIC) Klebsiella pneumoniae” value in the test on Klebsiella pneumoniae was 6 µg/mL (≈ 15.2 µM). For the same compound, the “minimum inhibitory concentration (MIC) Pseudomonas aeruginosa” value in the test with Pseudomonas aeruginosa was 6 µg/mL (≈ 15.2 µM). The “minimum inhibitory concentration (MIC) Trichophyton mentagrophytes” value in [1] was 6 µg/mL (≈ 15.2 µM). For the same compound, the “antibacterial activity against Bacillus subtilis” value in the test on Bacillus subtilis was “inactive”. In addition, the “antibacterial activity against Escherichia coli” value in the test with Escherichia coli was “inactive”. Also, in the test on Micrococcus luteus, the “antibacterial activity against Micrococcus luteus” value is “inactive”. In addition, the “minimum inhibitory concentration (MIC) Microsporum andouinii” value in the test with Microsporum andouinii was 6 µg/mL (≈ 15.2 µM). Moreover, the “antibacterial activity against Staphylococcus aureus” value in the test with Staphylococcus aureus was “inactive”. For the same compound, the “antibacterial activity against Vibrio anguillarum” value in the test with Vibrio anguillarum is “inactive”.
